Assay: Solubility parameter (Hildebrand parameter) values for selected solvents and polyacrylamide
Details: solvent with polyacrylamide homopolymer, δ 21
Excerpt: Determination of a suitable lower level alcohol, glycol, ketone, or mixtures thereof may be conducted using the solubility. The solubility of an amorphous polymer in a given solvent is governed by the Gibbs free energy of mixing given by Equation (1): ΔGm=ΔHm−TΔSm (1 ) ΔGm is the free energy change of the system upon mixing. ΔHm and ΔSm are the enthalpy and entropy change upon mixing, respectively, and T is the absolute temperature. When the free energy of mixing is less than zero (ΔGm<0) for a given polymer and solvent (or solvent mixture thereof), a single-phase system is obtained and mixing occurs spontaneously.
Solubility parameters, originally developed to describe enthalpy of mixing with simple nonpolar solvents, have been extended to describe the interactions of polymers and polar solvent. The enthalpy of mixing of such systems is expressed in a form like Equation (2):
[formula] […]
The units of δ may be difficult to rationalize. They are generally expressed as units of MPa½ or (cal/cm^3)^1/2. One simple way to understand these units is to note that Equation (4) calls for a solution in terms of a quantity of energy. It can be readily seen that substitution of δ values in terms of (cal/cm^3)^1/2 or MPa½ into Equation (4) results in a quantity of energy in terms of calories or joules, respectively, after unit cancellation (1 MPa=1 kJ/m^3). […]

Compound: CC(C)=O [Acetone]
- (δ1 − δ2)^2 PAM (cohesive energy difference parameter): 123.2

Compound: n-Propyl alcohol
- (δ1 − δ2)^2 PAM (cohesive energy difference parameter): 82.8
